Reference: patent US12157746B2, “Tetrahydro-1H-pyrazino[2,1-a]isoindolylquinoline compounds for the treatment of autoimmune disease” (F. HOFFMANN-LA ROCHE AG, priority 2018, dated 2024)

molecular target: T1, human TLR7 (Homo sapiens, UniProt Q9NYK1); experiment: HEK293-Blue-hTLR-7 cells assay; type: cell-based; settings: HEK293-Blue-hTLR7 cells, R848 stimulation, 20 hrs, SEAP reporter; read-out: HEK/hTLR7 IC50
T1 sequence (Q9NYK1 27-1049): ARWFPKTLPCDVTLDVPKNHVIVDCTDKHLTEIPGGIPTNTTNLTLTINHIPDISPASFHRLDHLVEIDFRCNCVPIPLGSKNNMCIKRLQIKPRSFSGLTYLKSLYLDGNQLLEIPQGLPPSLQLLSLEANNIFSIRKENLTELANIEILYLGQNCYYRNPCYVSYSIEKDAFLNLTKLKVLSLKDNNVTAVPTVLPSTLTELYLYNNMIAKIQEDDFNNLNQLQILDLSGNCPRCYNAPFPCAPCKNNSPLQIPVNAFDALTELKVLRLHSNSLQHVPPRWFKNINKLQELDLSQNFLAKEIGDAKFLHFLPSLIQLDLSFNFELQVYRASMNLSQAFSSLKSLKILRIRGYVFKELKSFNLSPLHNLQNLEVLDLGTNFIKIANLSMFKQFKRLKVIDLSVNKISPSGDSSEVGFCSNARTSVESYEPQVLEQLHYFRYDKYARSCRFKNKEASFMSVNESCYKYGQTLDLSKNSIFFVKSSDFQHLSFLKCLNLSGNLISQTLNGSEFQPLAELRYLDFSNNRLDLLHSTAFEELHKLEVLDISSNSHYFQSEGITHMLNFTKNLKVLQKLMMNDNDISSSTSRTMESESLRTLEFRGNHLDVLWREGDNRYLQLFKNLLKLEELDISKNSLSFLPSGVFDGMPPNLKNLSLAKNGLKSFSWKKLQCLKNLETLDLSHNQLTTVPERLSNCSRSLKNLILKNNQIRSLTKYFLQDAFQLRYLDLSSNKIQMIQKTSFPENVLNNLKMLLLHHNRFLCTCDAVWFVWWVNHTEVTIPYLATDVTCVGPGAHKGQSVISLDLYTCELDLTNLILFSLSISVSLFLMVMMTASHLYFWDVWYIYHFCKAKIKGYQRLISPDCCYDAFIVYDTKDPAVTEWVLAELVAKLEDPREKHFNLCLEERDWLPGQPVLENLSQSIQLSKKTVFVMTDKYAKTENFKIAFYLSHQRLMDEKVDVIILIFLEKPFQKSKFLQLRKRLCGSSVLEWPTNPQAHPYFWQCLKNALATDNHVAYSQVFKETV
Description: HEK293-Blue-hTLR-7 Cells Assay:
A stable HEK293-Blue-hTLR-7 cell line was purchased from InvivoGen (Cat. #: hkb-htlr7, San Diego, California, USA). These cells were originally designed for studying the stimulation of human TLR7 by monitoring the activation of NF-κB. A SEAP (secreted embryonic alkaline phosphatase) reporter gene was placed under the control of the IFN-β minimal promoter fused to five NF-κB and AP-1-binding sites. The SEAP was induced by activating NF-κB and AP-1 via stimulating HEK-Blue hTLR7 cells with TLR7 ligands. Therefore the reporter expression was declined by TLR7 antagonist under the stimulation of a ligand, such as R848 (Resiquimod), for incubation of 20 hrs. The cell culture supernatant SEAP reporter activity was determined using QUANTI-Blue™ kit (Cat. #: rep-qb1, Invivogen, San Diego, Ca. USA) at a wavelength of 640 nm, a detection medium that turns purple or blue in the presence of alkaline phosphatase.
HEK293-Blue-hTLR7 cells were incubated at a density of 250,000˜450,000 cells/mL in a volume of 170 μL in a 96-well plate in Dulbecco's Modified Eagle's medium (DMEM) containing 4.5 g/L glucose, 50 U/mL penicillin, […], […], 2 mM L-glutamine, 10% (v/v) heat-inactivated fetal bovine serum with addition of 20 μL test compound 1n a serial dilution in the presence of final DMSO at 1% and 10 μL of 20 uM R848 in above DMEM, perform incubation under 37° C. in a CO2 incubator for 20 hrs. Then 20 μL of the supernatant from each well was incubated with 180 μL Quanti-blue substrate solution at 37° C. for 2 hrs and the absorbance was read at 620-655 nm using a spectrophotometer. The signaling pathway that TLR7 activation leads to downstream NF-κB activation has been widely accepted, and therefore similar reporter assay was modified for evaluating TLR7 antagonist.

Row | IC50 [nM] | Compound
1 | 3.3 | C[C@@H]1CN(c2ccc(C#N)c3ncccc23)C[C@@H]2c3ccc(N4CC5(CNC5)C4)cc3CN12 [Example 36, 5-[(4R,10bS)-8-(2,6-diazaspiro[3.3]heptan-2-yl)-4-methyl-3,4,6,10b-tetrahydro-1H-pyrazino[2,1-a]isoindol-2-yl]quinoline-8-carbonitrile]
2 | < 3.2 | C[C@@H]1CN(c2ccc(C#N)c3ncccc23)C[C@@H]2c3ccc(N4CC5(CCN5)C4)cc3CN12 [Example 37, 5-[(4R,10bS)-8-(1,6-diazaspiro[3.3]heptan-6-yl)-4-methyl-3,4,6,10b-tetrahydro-1H-pyrazino[2,1-a]isoindol-2-yl]quinoline-8-carbonitrile]
3 | 1.7 | C[C@@H]1CN(c2ccc(C#N)c3ncccc23)C[C@@H]2c3ccc(N4CC5(CN(C)C5)C4)cc3CN12 [Example 38, 5-[(4R,10bS)-4-methyl-8-(6-methyl-2,6-diazaspiro[3.3]heptan-2-yl)-3,4,6,10b-tetrahydro-1H-pyrazino[2,1-a]isoindol-2-yl]quinoline-8-carbonitrile]
4 | 3 | C[C@@H]1CN(c2ccc(C#N)c3ncccc23)C[C@@H]2c3ccc(N4CC(C)(N)C4)cc3CN12 [Example 39, 5-[(4R,10bS)-8-(3-amino-3-methyl-azetidin-1-yl)-4-methyl-3,4,6,10b-tetrahydro-1H-pyrazino[2,1-a]isoindol-2-yl]quinoline-8-carbonitrile]
5 | 3.7 | C[C@@H]1CN(c2ccc(C#N)c3ncccc23)C[C@@H]2c3ccc(N4C[C@H](N)[C@@H](O)C4)cc3CN12 [Example 40A, 5-[(4R,10bS)-8-[(3S,4S)-3-amino-4-hydroxy-pyrrolidin-1-yl]-4-methyl-3,4,6,10b-tetrahydro-1H-pyrazino[2,1-a]isoindol-2-yl]quinoline-8-carbonitrile]
6 | < 3.2 | COC12CNCC1CN(c1ccc3c(c1)CN1[C@H](C)CN(c4ccc(C#N)c5ncccc45)C[C@H]31)C2 (stereo partly drawn) [Example 41, 5-[(4R,10bS)-8-(3a-methoxy-1,2,3,4,6,6a-hexahydropyrrolo[3,4-c]pyrrol-5-yl)-4-methyl-3,4,6,10b-tetrahydro-1H-pyrazino[2,1-a]isoindol-2-yl]quinoline-8-carbonitrile]
7 | < 3.2 | CN[C@H]1CN(c2ccc3c(c2)CN2[C@H](C)CN(c4ccc(C#N)c5ncccc45)C[C@H]32)C[C@@H]1O [Example 42, 5-[(4R,10bS)-8-[(3S,4S)-3-hydroxy-4-(methylamino)pyrrolidin-1-yl]-4-methyl-3,4,6,10b-tetrahydro-1H-pyrazino[2,1-a]isoindol-2-yl]quinoline-8-carbonitrile]
8 | 4 | CN[C@@H]1CN(c2ccc3c(c2)CN2[C@H](C)CN(c4ccc(C#N)c5ncccc45)C[C@H]32)C[C@H]1O [Example 43, 5-[(4R,10bS)-4-methyl-8-[(3R,4R)-3-hydroxy-4-(methylamino)pyrrolidin-1-yl]-3,4,6,10b-tetrahydro-1H-pyrazino[2,1-a]isoindol-2-yl]quinoline-8-carbonitrile]
9 | 19.1 | C[C@@H]1CN(c2ccc(C#N)c3ncccc23)C[C@@H]2c3ccc(N4C[C@H]5NCCO[C@@H]5C4)cc3CN12 [Example 44, 5-[(4R,10bS)-4-methyl-8-[(4aR,7aR)-3,4,4a,5,7,7a-hexahydro-2H-pyrrolo[3,4-b][1,4]oxazin-6-yl]-3,4,6,10b-tetrahydro-1H-pyrazino[2,1-a]isoindol-2-yl]quinoline-8-carbonitrile]
10 | 4.5 | C[C@@H]1CN(c2ccc(C#N)c3ncccc23)C[C@@H]2c3ccc(N4C[C@@H](N)[C@](C)(O)C4)cc3CN12 [Example 45, 5-[(4R,10bS)-4-methyl-8-[trans-(3R,4R)-4-amino-3-hydroxy-3-methyl-pyrrolidin-1-yl]-3,4,6,10b-tetrahydro-1H-pyrazino[2,1-a]isoindol-2-yl]quinoline-8-carbonitrile]
11 | 3.5 | C[C@@H]1CN(c2ccc(C#N)c3ncccc23)C[C@@H]2c3ccc(N4C[C@@H](N)[C@](C)(O)C4)cc3CN12 [Example 45A, 5-[(4R,10bS)-8-[(3R,4R)-4-amino-3-hydroxy-3-methyl-pyrrolidin-1-yl]-4-methyl-3,4,6,10b-tetrahydro-1H-pyrazino[2,1-a]isoindol-2-yl]quinoline-8-carbonitrile]
12 | 3.3 | C[C@@H]1CN(c2ccc(C#N)c3ncccc23)C[C@@H]2c3ccc(N4C[C@H](N)[C@@](C)(O)C4)cc3CN12 [Example 45B, 5-[(4R,10bS)-8-[(3S,4S)-4-amino-3-hydroxy-3-methyl-pyrrolidin-1-yl]-4-methyl-3,4,6,10b-tetrahydro-1H-pyrazino[2,1-a]isoindol-2-yl]quinoline-8-carbonitrile]
13 | 15.6 | C[C@@H]1CN(c2ccc(C#N)c3ncccc23)C[C@@H]2c3ccc(N4C[C@@H](F)[C@@H](N)C4)cc3CN12 [Example 46, 5-[(4R,10bS)-8-[(3S,4R)-3-amino-4-fluoro-pyrrolidin-1-yl]-4-methyl-3,4,6,10b-tetrahydro-1H-pyrazino[2,1-a]isoindol-2-yl]quinoline-8-carbonitrile]
14 | 4.8 | C[C@@H]1CN(c2ccc(C#N)c3ncccc23)C[C@@H]2c3ccc(N4C[C@@H](N)[C@@H](F)C4)cc3CN12 [Example 47, 5-[(4R,10bS)-8-[(3R,4S)-3-amino-4-fluoro-pyrrolidin-1-yl]-4-methyl-3,4,6,10b-tetrahydro-1H-pyrazino[2,1-a]isoindol-2-yl]quinoline-8-carbonitrile]
15 | 5.8 | C[C@@H]1CN(c2ccc(C#N)c3ncccc23)C[C@@H]2c3ccc(N4C[C@@H](N)[C@H](F)C4)cc3CN12 [Example 48, 5-[(4R,10bS)-8-[(3R,4R)-3-amino-4-fluoro-pyrrolidin-1-yl]-4-methyl-3,4,6,10b-tetrahydro-1H-pyrazino[2,1-a]isoindol-2-yl]quinoline-8-carbonitrile]
16 | 4.5 | C[C@@H]1CN(c2ccc(C#N)c3ncccc23)C[C@@H]2c3ccc(N4C[C@H](N)[C@@H](F)C4)cc3CN12 [Example 49, 5-[(4R,10bS)-8-[(3S,4S)-3-amino-4-fluoro-pyrrolidin-1-yl]-4-methyl-3,4,6,10b-tetrahydro-1H-pyrazino[2,1-a]isoindol-2-yl]quinoline-8-carbonitrile]
17 | 1.4 | C[C@@H]1CN(c2ccc(C#N)c3ncccc23)C[C@@H]2c3ccc(N4CCC(C)(N)CC4)cc3CN12 [Example 51, 5-[(4R,10bS)-8-(4-amino-4-methyl-1-piperidyl)-4-methyl-3,4,6,10b-tetrahydro-1H-pyrazino[2,1-a]isoindol-2-yl]quinoline-8-carbonitrile]
18 | 8.5 | C[C@@H]1CN(c2ccc(C#N)c3ncccc23)C[C@@H]2c3ccc(N4CCOC5CNCC54)cc3CN12 (stereo partly drawn) [Example 52, 5-[(4R,10bS)-8-(3,4a,5,6,7,7a-hexahydro-2H-pyrrolo[3,4-b][1,4]oxazin-4-yl)-4-methyl-3,4,6,10b-tetrahydro-1H-pyrazino[2,1-a]isoindol-2-yl]quinoline-8-carbonitrile]
19 | 3.9 | C[C@@H]1CN(c2ccc(C#N)c3ncccc23)C[C@@H]2c3ccc(N4CCNC[C@H](O)C4)cc3CN12 [Example 53A, 5-[(4R,10bS)-8-[(6S)-6-hydroxy-1,4-diazepan-1-yl]-4-methyl-3,4,6,10b-tetrahydro-1H-pyrazino[2,1-a]isoindol-2-yl]quinoline-8-carbonitrile]
